Columns and labels:
Type in all cases: in vivo, human
[1] = Body weight, Clinical Study One
Description: Statistical testing of the change from Baseline in weight was performed using similar methodology to that used for the secondary efficacy parameters (an ANCOVA model with factors for treatment and weight at Baseline). Pairwise comparisons of the bifeprunox treatment groups versus placebo were all statistically significant (bifeprunox 5 mg [p=0.025], bifeprunox 10 mg [p=0.009] and bifeprunox 20 mg [p=0.031] for the difference between bifeprunox and placebo mean change from Baseline in weight at Endpoint.

[2] = system: adult subjects with schizophrenia; experiment: BPRS total score, Clinical Study One; settings: ITT population
Description: There were five treatment groups in this study. […] Study medication was administered once daily. After Baseline measurements were performed, the titration phase was begun. Bifeprunox treated subjects were titrated up to 5 mg, 10 mg or 20 mg according to a standardized titration schedule (Day 1: 0.125 mg, Day 2: 0.25 mg, Day 3: 0.5 mg, Day 4: 1.0 mg, Day 5: 2.0 mg, Day 6: 5.0 mg, Day 7: 10.0 mg, Day 8: 20 mg). When the assigned dose was reached, subjects were maintained at that dose for the remainder of the six-week treatment period.
The change in the Positive and Negative Symptom Scale (PANSS) total score, from baseline to endpoint, was the primary outcome measure. Secondary efficacy measures included: PANSS positive, PANSS negative, PANSS general psychopathology (GPP) score, PANSS-derived Brief Psychiatric Rating Scale (BPRS) score, Clinical Global Impressions-Severity of Illness (CGI-S), CGI-Improvement (CGI-I) scores, and responder rates. Safety and tolerability evaluations included extrapyramidal symptoms (EPS), weight gain, lipid profile, and serum prolactin.

[3] = system: adult subjects with schizophrenia; experiment: PANSS positive symptom subscale score, Clinical Study Three; settings: LOCF, ITT; for PANSS Positive Symptom Subscale Score, Trt Effect (bifeprunox—placebo): ANCOVA
Description: SECONDARY OBJECTIVES To assess the efficacy of bifeprunox in treating schizophrenia using the Positive Symptom sub-scale score of the PANSS, the Negative Symptom sub-scale score of the PANSS, the General Psychopathology sub-scale of the PANSS, Brief Psychiatric Rating Scale (BPRS) total score derived from the PANSS, BPRS psychosis score derived from the PANSS, the Clinical Global Impression Severity of Illness score (CGI-S), the Clinical Global Impression Improvement score (CGI-I), CGI-I responder rate, PANSS responder rate based on the PANSS total score, Calgary Depression Scale for Schizophrenia (CDSS), and Subject Satisfaction rating.
There were four treatment arms in this study, approximately 144 subjects per arm. […] After completing the Single-Blind Placebo Lead-in Period of at least three days, bifeprunox-treated subjects were titrated from 0.25 mg up to 20 mg/day or 30 mg/day according to a standardized titration scheme over a seven- or eight-day period, respectively. When the assigned dose was reached, subjects were maintained at that dose for the remainder of the six week treatment period. […] Subjects were hospitalized (if not already inpatients) after eligibility for study entry was verified, starting from the Screening Visit until at least 10 days after Baseline. Subjects could be hospitalized longer than 10 days if considered medically necessary by the Investigator. Rating scale assessments for efficacy and abnormal movement disorders were done weekly except for Week 5. […] Subject satisfaction with study medication was assessed at Week 6.

[4] = Bifeprunox 10 mg, Endpoint LOCF
[5] = Bifeprunox 20 mg, Endpoint LOCF
[6] = Bifeprunox 20 mg, Week 6/Endpoint
[7] = Bifeprunox 30 mg, Week 6/Endpoint

## O=c1[nH]c2cccc(N3CCN(Cc4cccc(-c5ccccc5)c4)CC3)c2o1 [Bifeprunox, 7-[4-([1,1′-biphenyl]-3-ylmethyl)-1-piperazinyl]-2(3H)-benzoxazolone]
[1]; bifeprunox 5 mg
  mean weight change at Endpoint: −1.0 lb
  subjects whose weight decreased by more than 7%: 6%
[1]; bifeprunox 10 mg
  mean weight change at Endpoint: −1.3 lb
  subjects whose weight decreased by more than 7%: 7%
[1]; bifeprunox 20 mg
  mean weight change at Endpoint: −0.6 lbs
  subjects whose weight decreased by more than 7%: 8%
[1]; bifeprunox groups, 6 weeks
  body weight (in words): Mild weight loss
[1]; bifeprunox, 6 weeks (Example 4)
  weight compared to placebo: statistically significant (P<0.05) weight decrease
[2]; Bifeprunox 5 mg, Endpoint LOCF
  Change from Baseline in BPRS Total Score, Mean (S.D.): −6.2 (10.5)
  Change from Baseline in BPRS Total Score, Median: −5
  Change from Baseline in BPRS Total Score, Trt Effect (bifeprunox—placebo): −2.4
[2]; Bifeprunox 5 mg, Week 1, LOCF
  Change from Baseline in BPRS Total Score, Mean (S.D.): −2.4 (7.5)
  Change from Baseline in BPRS Total Score, Median: −3
[2]; Bifeprunox 5 mg, Week 2, LOCF
  Change from Baseline in BPRS Total Score, Mean (S.D.): −4.2 (8.6)
  Change from Baseline in BPRS Total Score, Median: −4
[2]; Bifeprunox 5 mg, Week 3, LOCF
  Change from Baseline in BPRS Total Score, Mean (S.D.): −5.2 (9.7)
  Change from Baseline in BPRS Total Score, Median: −5
[2]; Bifeprunox 5 mg, Week 4, LOCF
  Change from Baseline in BPRS Total Score, Mean (S.D.): −5.6 (10.2)
  Change from Baseline in BPRS Total Score, Median: −5
[2]; [4]
  Change from Baseline in BPRS Total Score, Mean (S.D.): −3.4 (11.5)
  Change from Baseline in BPRS Total Score, Median: −2
  Change from Baseline in BPRS Total Score, Trt Effect (bifeprunox—placebo): −0.6
[2]; Bifeprunox 10 mg, Week 1, LOCF
  Change from Baseline in BPRS Total Score, Mean (S.D.): −2.0 (7.2)
  Change from Baseline in BPRS Total Score, Median: −1
[2]; Bifeprunox 10 mg, Week 2, LOCF
  Change from Baseline in BPRS Total Score, Mean (S.D.): −3.1 (9.3)
  Change from Baseline in BPRS Total Score, Median: −3
[2]; Bifeprunox 10 mg, Week 3, LOCF
  Change from Baseline in BPRS Total Score, Mean (S.D.): −3.3 (10.9)
  Change from Baseline in BPRS Total Score, Median: −2
[2]; Bifeprunox 10 mg, Week 4, LOCF
  Change from Baseline in BPRS Total Score, Mean (S.D.): −3.1 (10.7)
  Change from Baseline in BPRS Total Score, Median: −3
[2]; [5]
  Change from Baseline in BPRS Total Score, Mean (S.D.): −7.6 (10.1)
  Change from Baseline in BPRS Total Score, Median: −8
  Change from Baseline in BPRS Total Score, Trt Effect (bifeprunox—placebo): −3.5
[2]; Bifeprunox 20 mg, Week 1, LOCF
  Change from Baseline in BPRS Total Score, Mean (S.D.): −4.3 (7.3)
  Change from Baseline in BPRS Total Score, Median: −3
[2]; Bifeprunox 20 mg, Week 2, LOCF
  Change from Baseline in BPRS Total Score, Mean (S.D.): −6.1 (8.8)
  Change from Baseline in BPRS Total Score, Median: −7
[2]; Bifeprunox 20 mg, Week 3, LOCF
  Change from Baseline in BPRS Total Score, Mean (S.D.): −7.5 (9.1)
  Change from Baseline in BPRS Total Score, Median: −8
[2]; Bifeprunox 20 mg, Week 4, LOCF
  Change from Baseline in BPRS Total Score, Mean (S.D.): −7.7 (9.7)
  Change from Baseline in BPRS Total Score, Median: −8
[3]; Bifeprunox 20 mg, Week 1
  Change from Baseline in PANSS Positive Symptom Subscale Score, Mean (SD): −1.6 (3.7)
  Change from Baseline in PANSS Positive Symptom Subscale Score, Median: −2
[3]; Bifeprunox 20 mg, Week 2
  Change from Baseline in PANSS Positive Symptom Subscale Score, Mean (SD): −3.0 (4.7)
  Change from Baseline in PANSS Positive Symptom Subscale Score, Median: −3
[3]; Bifeprunox 20 mg, Week 3
  Change from Baseline in PANSS Positive Symptom Subscale Score, Mean (SD): −3.8 (5.2)
  Change from Baseline in PANSS Positive Symptom Subscale Score, Median: −3
[3]; Bifeprunox 20 mg, Week 4
  Change from Baseline in PANSS Positive Symptom Subscale Score, Mean (SD): −4.2 (5.7)
  Change from Baseline in PANSS Positive Symptom Subscale Score, Median: −4
[3]; [6]
  Change from Baseline in PANSS Positive Symptom Subscale Score, Mean (SD): −4.3 (6.1)
  Change from Baseline in PANSS Positive Symptom Subscale Score, Median: −4
  PANSS Positive Symptom Subscale Score, Trt Effect (bifeprunox—placebo): −1.1
[3]; Bifeprunox 30 mg, Week 1
  Change from Baseline in PANSS Positive Symptom Subscale Score, Mean (SD): −2.0 (3.8)
  Change from Baseline in PANSS Positive Symptom Subscale Score, Median: −2
[3]; Bifeprunox 30 mg, Week 2
  Change from Baseline in PANSS Positive Symptom Subscale Score, Mean (SD): −2.8 (5.1)
  Change from Baseline in PANSS Positive Symptom Subscale Score, Median: −3
[3]; Bifeprunox 30 mg, Week 3
  Change from Baseline in PANSS Positive Symptom Subscale Score, Mean (SD): −3.6 (6.0)
  Change from Baseline in PANSS Positive Symptom Subscale Score, Median: −4
[3]; Bifeprunox 30 mg, Week 4
  Change from Baseline in PANSS Positive Symptom Subscale Score, Mean (SD): −4.0 (6.3)
  Change from Baseline in PANSS Positive Symptom Subscale Score, Median: −4
[3]; [7]
  Change from Baseline in PANSS Positive Symptom Subscale Score, Mean (SD): −4.2 (6.8)
  Change from Baseline in PANSS Positive Symptom Subscale Score, Median: −5
  PANSS Positive Symptom Subscale Score, Trt Effect (bifeprunox—placebo): −0.7

Source: patent US20090068290A1, “BIFEPRUNOX DOSES FOR TREATING SCHIZOPHRENIA” (priority 2006, published 2009)
